Laboratory results reported in patent US10870638B2, “Pyridazinone compound or its salt, and herbicide containing it” (ISHIHARA SANGYO KAISHA, LTD., priority 2016, dated 2020).

Tests used:
Type in all cases: in vivo
Conditions in all cases: active ingredient amount 31 g/ha, 14th day after application
[1] = tested on: wild oat (Avena fatua L.); test: Test Example 1: foliar treatment, growth inhibition rate on 14th day
Summary of the method: (§1)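 Growth inhibition rates (%) come from visual observation on the 14th day following a single foliar application. Soybean was sprayed at the primary leaf stage, rice at 0.2–2.7 leaves, wild oat at 0.4–1.2, green foxtail at 0.5–3.2.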

[2] = tested on: barnyardgrass (Echinochloa crus-qalli L.); test: as above
Summary of the method: (§2)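 Using a small sprayer, formulated compound in water (0.1 vol % surfactant, 1,000 L/ha) was applied to seedlings grown from seed in upland soil. Fourteen days on, growth state was observed and expressed as percent inhibition from 0 to 100.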

[3] = tested on: green foxtail (Setaria viridis L.); test: as above
Summary of the method: as §1

[4] = tested on: soybean (Glycine max Merr.); test: as above
Summary of the method: as §1

[5] = tested on: redroot pigweed (Amaranthus retroflexus L.); test: as above
Summary of the method: as §2

corn (Zea mays L.) [6] = test: as above
Summary of the method: as §2

rice (Oryza sativa L.) [7] = test: as above
Summary of the method: as §1

[8] = tested on: wheat (Triticum aestivum L.); test: as above
Summary of the method: as §2

[9] = tested on: crabgrass (Digitaria sanquinalis L.); test: as above
Summary of the method: as §2

[10] = tested on: italian ryegrass (Lolium multiflorum Lam.); test: as above
Summary of the method: as §2

[11] = tested on: crabgrass (Digitaris sanquinalis L.); test: Test Example 2: soil application on the day after sowing, growth inhibition rate on 14th day
Text: (§3) Upland field soil was put into a 1/300,000 hectare pot, and seeds of various plants (barnyardgrass (Echinochloa crus-qalli L.), crabgrass (Digitaris sanquinalis L.), green foxtail (Setaria viridis L.), redroot pigweed (Amaranthus retroflexus L.), prickly sida (Sida spinosa L.), velvetleaf (Abutilon theophrasti MEDIC.), rice (Oryza sativa L.), corn (Zea mays L.), wheat (Triticum aestivum L.), soybean (Glycine max Merr.)) were sown. On the day after sowing, wettable powders or emulsifiable concentrates of the compounds of the present invention prepared in accordance with a conventional preparation method, were weighed so as to achieve the prescribed active ingredient amounts, and diluted with water in an amount corresponding to 1,000 liters per 1 hectare, followed by soil application by a small sprayer.
(§4) On the 14th day after the application, the state of growth of the respective plants was visually observed, and the herbicidal effect was evaluated by a growth inhibition rate (%) of 0 (equivalent to the non-treated area) to 100 (complete kill).

[12] = tested on: barnyardgrass (Echinochloa crus-qalli L.); test: as above
Text: as §3, §4

[13] = tested on: green foxtail (Setaria viridis L.); test: as above
Text: as §3, §4

[14] = tested on: soybean (Glycine max Merr.); test: as above
Text: as §3, §4

[15] = tested on: velvetleaf (Abutilon theophrasti MEDIC.); test: as above
Text: as §3, §4

corn (Zea mays L.) [16] = test: as above
Text: as §3, §4

[17] = tested on: prickly sida (Sida spinosa L.); test: as above
Text: as §3, §4

rice (Oryza sativa L.) [18] = test: as above
Text: as §3, §4

[19] = tested on: wheat (Triticum aestivum L.); test: as above
Text: as §3, §4

[20] = tested on: redroot pigweed (Amaranthus retroflexus L.); test: as above
Text: as §3, §4

[21] = visual, 0 = non-treated, 100 = complete kill

Row | Compound | Growth inhibition rate (%) Wild oat [1] | Growth inhibition rate (%) Barnyardgrass [2] | Growth inhibition rate (%) Green foxtail [3] | Growth inhibition rate (%) Soybean [4] | Growth inhibition rate (%) Redroot pigweed [5] | Growth inhibition rate (%) Corn (corn (Zea mays L.) [6]) | Growth inhibition rate (%) Rice (rice (Oryza sativa L.) [7]) | Growth inhibition rate (%) Wheat [8] | Growth inhibition rate (%) Crabgrass [9] | Growth inhibition rate (%) Italian ryegrass [10] | Growth inhibition rate (%) Crabgrass [11] | Growth inhibition rate (%) Barnyardgrass [12] | Growth inhibition rate (%) Green foxtail [13] | Growth inhibition rate (%) Soybean [14] | Growth inhibition rate (%) Velvetleaf [15] | Growth inhibition rate (%) Corn (corn (Zea mays L.) [16]) | Growth inhibition rate (%) Prickly sida [17] | Growth inhibition rate (%) Rice (rice (Oryza sativa L.) [18]) | Growth inhibition rate (%) Wheat [19] | Growth inhibition rate (%) Wild oat [1, 21] | also measured
1 | Cc1ccc(Sc2ncc(C(F)(F)F)cc2Cl)cc1-c1c(O)c(C)nn(C)c1=O [1-2, 4-(5-((3-chloro-5-(trifluoromethyl)pyridin-2-yl)thio)-2-methylphenyl)-5-hydroxy-2,6-dimethylpyridazin-3(2H)-one] | 95% | 100% | 99% | 0% | 0% | 95% | 10% | 20% | 99% | 99% | – | – | – | – | – | – | – | – | – | – | inhibition at 31 g/ha ([11]; Digitaria sanguinalis): 98%; inhibition at 31 g/ha ([12]; Echinochloa): 98%; inhibition at 31 g/ha ([13]; Setaria viridis): 99%; inhibition at 31 g/ha ([14]; Glycine max): 0%; inhibition at 31 g/ha ([15]; Abutilon theophrasti): 0%; inhibition at 31 g/ha (corn (Zea mays L.) [16]; Zea mays): 20%; inhibition at 31 g/ha ([17]; Sida spinosa): 30%; inhibition at 31 g/ha (rice (Oryza sativa L.) [18]; Oryza sativa): 20%; inhibition at 31 g/ha ([19]; Triticum aestivum): 10%
2 | Cc1ccc(Oc2cnc3cc(Cl)ccc3n2)cc1-c1c(O)c(C)nn(C)c1=O [Compound 2-7] | 98% | 100% | 100% | 0% | 50% | 10% | 100% | 98% | – | 100% | 99% | 99% | 100% | 0% | 0% | 20% | 0% | 40% | 25% | – | Growth inhibition rate (%) Redroot pigweed [20]: 0%
3 | CCc1ccc(Oc2nc3cc(Cl)ccc3o2)cc1-c1c(O)c(C)nn(C)c1=O [Compound 2-162] | 100% | 100% | 99% | 0% | 10% | 90% | 100% | 99% | 100% | 100% | 20% | 90% | 20% | 0% | 0% | 0% | – | 0% | 20% | – | –
4 | CCn1ncc(O)c(-c2cc(Oc3nc4ccc(Cl)cc4o3)ccc2C)c1=O [Compound 2-167] | 45% | 100% | 100% | 30% | 0% | 90% | 60% | 25% | 99% | 80% | 99% | 40% | 100% | 0% | 0% | 0% | 0% | 0% | 0% | – | –
5 | CC(=O)Oc1cnn(C)c(=O)c1-c1cc(Oc2nc3cc(Cl)ccc3o2)ccc1C [Compound 2-174] | 88% | 100% | 93% | 0% | – | 95% | 93% | 93% | 93% | 95% | 80% | 20% | 0% | 0% | 0% | 20% | 0% | 0% | 0% | – | Growth inhibition rate (%) Redroot pigweed [20]: 0%
6 | Cc1ccc(Oc2cnc3cc(Cl)ccc3n2)cc1-c1c(O)c(C)nn(C)c1=O [Compound 3-1] | 98% | 100% | 100% | 0% | 50% | 10% | 100% | 98% | 99% | 100% | – | 99% | – | – | 0% | 20% | 0% | 40% | 25% | – | Growth inhibition rate (%) Redroot pigweed [20]: 0%
7 | C#CCOc1c(C)nn(C)c(=O)c1-c1cc(Oc2cnc3cc(Cl)ccc3n2)ccc1C [Compound 3-77] | – | – | – | – | – | – | – | – | – | – | – | – | – | – | – | – | – | – | – | 60% | Growth inhibition rate (%) Barnyardgrass [2, 21]: 100%; Growth inhibition rate (%) Green foxtail [3, 21]: 100%; Growth inhibition rate (%) Soybean [4, 21]: 0%; Growth inhibition rate (%) Redroot pigweed [5, 21]: 0%; Growth inhibition rate (%) Corn (corn (Zea mays L.) [6]; [21]): 30%; Growth inhibition rate (%) Rice (rice (Oryza sativa L.) [7]; [21]): 0%; Growth inhibition rate (%) Wheat [8, 21]: 25%; Growth inhibition rate (%) Crabgrass [9, 21]: 90%; Growth inhibition rate (%) Italian ryegrass [10, 21]: 85%
8 | Cc1ccc(Oc2cnc3cc(Cl)ccc3n2)cc1-c1c(OCC#N)c(C)nn(C)c1=O [Compound 3-78] | – | – | – | – | – | – | – | – | – | – | – | – | – | – | – | – | – | – | – | 40% | Growth inhibition rate (%) Barnyardgrass [2, 21]: 99%; Growth inhibition rate (%) Green foxtail [3, 21]: 98%; Growth inhibition rate (%) Soybean [4, 21]: 0%; Growth inhibition rate (%) Redroot pigweed [5, 21]: 0%; Growth inhibition rate (%) Corn (corn (Zea mays L.) [6]; [21]): 0%; Growth inhibition rate (%) Rice (rice (Oryza sativa L.) [7]; [21]): 0%; Growth inhibition rate (%) Wheat [8, 21]: 0%; Growth inhibition rate (%) Crabgrass [9, 21]: 93%; Growth inhibition rate (%) Italian ryegrass [10, 21]: 10%
9 | Cc1ccc(Oc2cnc3cc(Cl)ccc3n2)cc1-c1c(OC(=O)CC2CCCCC2)c(C)nn(C)c1=O [Compound 3-80] | – | – | – | – | – | – | – | – | – | – | – | – | – | – | – | – | – | – | – | 99% | Growth inhibition rate (%) Barnyardgrass [2, 21]: 100%; Growth inhibition rate (%) Green foxtail [3, 21]: 99%; Growth inhibition rate (%) Soybean [4, 21]: 25%; Growth inhibition rate (%) Redroot pigweed [5, 21]: 0%; Growth inhibition rate (%) Corn (corn (Zea mays L.) [6]; [21]): 25%; Growth inhibition rate (%) Rice (rice (Oryza sativa L.) [7]; [21]): 0%; Growth inhibition rate (%) Wheat [8, 21]: 90%; Growth inhibition rate (%) Crabgrass [9, 21]: 95%; Growth inhibition rate (%) Italian ryegrass [10, 21]: 93%
10 | Cc1ccc(Oc2cnc3cc(Cl)ccc3n2)cc1-c1c(OCOCCCl)c(C)nn(C)c1=O [Compound 3-81] | – | – | – | – | – | – | – | – | – | – | – | – | – | – | – | – | – | – | – | 95% | Growth inhibition rate (%) Barnyardgrass [2, 21]: 99%; Growth inhibition rate (%) Green foxtail [3, 21]: 99%; Growth inhibition rate (%) Soybean [4, 21]: 0%; Growth inhibition rate (%) Redroot pigweed [5, 21]: 0%; Growth inhibition rate (%) Corn (corn (Zea mays L.) [6]; [21]): 0%; Growth inhibition rate (%) Rice (rice (Oryza sativa L.) [7]; [21]): 0%; Growth inhibition rate (%) Wheat [8, 21]: 25%; Growth inhibition rate (%) Crabgrass [9, 21]: 93%; Growth inhibition rate (%) Italian ryegrass [10, 21]: 95%
